According to patent publication US9387202B2, “Pyridone amides and analogs exhibiting anti-cancer and anti-proliferative activities” (priority 2011, dated 2016):

How the values were obtained:
[1] = molecular target: T1, c-MET kinase (Seq. ID No. 2), cMET WT (Homo sapiens, UniProt P08581); experiment: c-MET kinase assay (WT MET biochemical assay); conditions: for Fold potency decrease versus Example 1, cMET WT: relative to Example 1 = 1; for Fold potency decrease versus Example 2, cMET WT: relative to Example 2 = 1
T1 construct: c-MET (c-MET residues: 956-1390, from Invitrogen, catalogue #PV3143, 6 nM); purchased Invitrogen PV3143
Method: Activity of c-MET kinase (Seq. ID No. 2) was determined by following the production of ADP from the kinase reaction through coupling with the pyruvate kinase/lactate dehydrogenase system (e.g., Schindler et al. Science 2000, 289, pp. 1938-1942). In this assay, the oxidation of NADH (thus the decrease at A340 nm) was continuously monitored spectrophotometrically. The reaction mixture (100 μl) contained c-MET (c-MET residues: 956-1390, from Invitrogen, catalogue #PV3143, 6 nM), polyE4Y (1 mg/mL), MgCl2 (10 mM), pyruvate kinase (4 units), lactate dehydrogenase (0.7 units), phosphoenol pyruvate (1 mM), and NADH (0.28 mM) in 90 mM Tris buffer containing 0.25 mM DTT, 0.2% octyl-glucoside and 1% DMSO, pH 7.5. Test compounds were incubated with c-MET (Seq. ID No. 2) and other reaction reagents at 22° C. for 0.5 h before ATP (100 μM) was added to start the reaction. The absorption at 340 nm was monitored continuously for 2 hours at 30° C. on Polarstar Optima plate reader (BMG). The reaction rate was calculated using the 1.0 to 2.0 h time frame. Percent inhibition was obtained by comparison of reaction rate with that of a control (i.e., with no test compound). IC50 values were calculated from a series of percent inhibition values determined at a range of inhibitor concentrations using software routines as implemented in the GraphPad Prism software package.

[2] = molecular target: T2, Phospho-MET in EBC-1 cells (Homo sapiens, UniProt P08581); experiment: EBC-1 Phospho-MET ELISA; type: cell-based
T2 construct: host or cells: EBC-1
Method: (§1) EBC-1 cells (catalog #JCRB0820) were obtained from the Japan Health Science Research Resources Bank, Osaka, Japan. Briefly, cells were grown in DMEM supplemented with 10% characterized fetal bovine serum (Invitrogen, Carlsbad, Calif.) at 37° C., 5% CO2, 95% humidity. Cells were allowed to expand until reaching 70-95% confluency at which point they were subcultured or harvested for assay use.
Fifteen thousand cells in DMEM supplemented with 0.5% characterized fetal bovine serum (FBS; Invitrogen, Carlsbad, Calif.) were added per well in a 96-well black clear bottom plate (Corning, Corning, N.Y.). Cells were then incubated overnight at 37 degrees Celsius, 5% CO2, 95% humidity. A serial dilution of test compound was dispensed into another 96-well black clear bottom plate (Corning, Corning, N.Y.) containing DMEM supplemented with 0.5% FBS. Diluted compound was then added to plates containing cells and incubated for 6 hours at 37 degrees Celsius, 5% CO2, 95% humidity. Cells were stimulated with 40 ng/mL HGF (R&D Systems, Minneapolis, Minn.) for 10 minutes, and then lysed. Phospho-MET in cell lysates was detected using the DuoSet IC Human Phospho-HGF R/c-MET ELISA (R&D Systems, Minneapolis, Minn.). Data was analyzed using Prism software (Graphpad, San Diego, Calif.) to calculate IC50 values.

[3] = molecular target: MET (D1246N) Mutant (Homo sapiens, UniProt P08581, D1228N); experiment: Mutant MET kinase biochemical assay, D1246N; conditions: for Fold potency decrease versus Example 1, MET (D1246N) Mutant: relative to Example 1 = 1; for Fold potency decrease versus Example 2, MET (D1246N) Mutant: relative to Example 2 = 1
[4] = molecular target: MET (Y1248H) Mutant (Homo sapiens, UniProt P08581, Y1230H); experiment: Mutant MET kinase biochemical assay, Y1248H; conditions: for Fold potency decrease versus Example 1, MET (Y1248H) Mutant: relative to Example 1 = 1; for Fold potency decrease versus Example 2, MET (Y1248H) Mutant: relative to Example 2 = 1
[5] = molecular target: T3, Phospho-MET in MKN-45 cells (Homo sapiens, UniProt P08581); experiment: MKN-45 Phospho-MET ELISA; type: cell-based
T3 construct: host or cells: MKN-45
Method: as §1, with “MKN-45” for “EBC-1”, “#JCRB0254)” for “#JCRB0820)”, “RPMI 1640 media” for “DMEM”
Twenty-five thousand cells in RPMI-1640 supplemented with 10% characterized fetal bovine serum (Invitrogen, Carlsbad, Calif.) were added per well in a 96-well black clear bottom plate (Corning, Corning, N.Y.). Cells were then incubated overnight at 37 degrees Celsius, 5% CO2, 95% humidity. Media was then aspirated and cells were washed with PBS. A serial dilution of test compound was dispensed into another 96-well black clear bottom plate (Corning, Corning, N.Y.) containing serum-free RPMI-1640. Compound was added to plates containing cells and incubated for 6 hours at 37 degrees Celsius, 5% CO2, 95% humidity. Cells were stimulated with 40 ng/mL HGF (R&D Systems, Minneapolis, Minn.) for 10 minutes, and then lysed. Phospho-MET in cell lysates was detected using the DuoSet IC Human Phospho-HGF R/c-MET ELISA (R&D Systems, Minneapolis, Minn.). Data was analyzed using Prism software (Graphpad, San Diego, Calif.) to calculate IC50 values.

[6] = molecular target: MET (D1246H) Mutant (Homo sapiens, UniProt P08581, D1228H); experiment: Mutant MET kinase biochemical assay, D1246H; conditions: for Fold potency decrease versus Example 1, MET (D1246H) Mutant: relative to Example 1 = 1; for Fold potency decrease versus Example 2, MET (D1246H) Mutant: relative to Example 2 = 1
[7] = test system: A549 cells; experiment: A549 HGF-stimulated MET-dependent cell migration assay; type: cell-based
[8] = test system: oncogenic Mutant MET kinase; experiment: various oncogenic Mutant MET kinase biochemical assays (summarised); conditions: range over columns 3-6; for Fold less potent than Example 1 in the various oncogenic Mutant MET kinase biochemical assays: relative to Example 1; for Fold less potent than Example 2 in the various oncogenic Mutant MET kinase biochemical assays: relative to Example 2
[9] = molecular target: MET (Y1248C) Mutant (Homo sapiens, UniProt P08581, Y1230C); experiment: Mutant MET kinase biochemical assay, Y1248C; conditions: for Fold potency decrease versus Example 1, MET (Y1248C) Mutant: relative to Example 1 = 1; for Fold potency decrease versus Example 2, MET (Y1248C) Mutant: relative to Example 2 = 1
[10] = relative to Example 1 = 1, listed as the '229 Compound
[11] = relative to Example 2 = 1, listed as the '229 Compound

Sequence of MET (Y1248C) Mutant (P08581 25-1408 isoform P08581-2 Y1248C limits assumed): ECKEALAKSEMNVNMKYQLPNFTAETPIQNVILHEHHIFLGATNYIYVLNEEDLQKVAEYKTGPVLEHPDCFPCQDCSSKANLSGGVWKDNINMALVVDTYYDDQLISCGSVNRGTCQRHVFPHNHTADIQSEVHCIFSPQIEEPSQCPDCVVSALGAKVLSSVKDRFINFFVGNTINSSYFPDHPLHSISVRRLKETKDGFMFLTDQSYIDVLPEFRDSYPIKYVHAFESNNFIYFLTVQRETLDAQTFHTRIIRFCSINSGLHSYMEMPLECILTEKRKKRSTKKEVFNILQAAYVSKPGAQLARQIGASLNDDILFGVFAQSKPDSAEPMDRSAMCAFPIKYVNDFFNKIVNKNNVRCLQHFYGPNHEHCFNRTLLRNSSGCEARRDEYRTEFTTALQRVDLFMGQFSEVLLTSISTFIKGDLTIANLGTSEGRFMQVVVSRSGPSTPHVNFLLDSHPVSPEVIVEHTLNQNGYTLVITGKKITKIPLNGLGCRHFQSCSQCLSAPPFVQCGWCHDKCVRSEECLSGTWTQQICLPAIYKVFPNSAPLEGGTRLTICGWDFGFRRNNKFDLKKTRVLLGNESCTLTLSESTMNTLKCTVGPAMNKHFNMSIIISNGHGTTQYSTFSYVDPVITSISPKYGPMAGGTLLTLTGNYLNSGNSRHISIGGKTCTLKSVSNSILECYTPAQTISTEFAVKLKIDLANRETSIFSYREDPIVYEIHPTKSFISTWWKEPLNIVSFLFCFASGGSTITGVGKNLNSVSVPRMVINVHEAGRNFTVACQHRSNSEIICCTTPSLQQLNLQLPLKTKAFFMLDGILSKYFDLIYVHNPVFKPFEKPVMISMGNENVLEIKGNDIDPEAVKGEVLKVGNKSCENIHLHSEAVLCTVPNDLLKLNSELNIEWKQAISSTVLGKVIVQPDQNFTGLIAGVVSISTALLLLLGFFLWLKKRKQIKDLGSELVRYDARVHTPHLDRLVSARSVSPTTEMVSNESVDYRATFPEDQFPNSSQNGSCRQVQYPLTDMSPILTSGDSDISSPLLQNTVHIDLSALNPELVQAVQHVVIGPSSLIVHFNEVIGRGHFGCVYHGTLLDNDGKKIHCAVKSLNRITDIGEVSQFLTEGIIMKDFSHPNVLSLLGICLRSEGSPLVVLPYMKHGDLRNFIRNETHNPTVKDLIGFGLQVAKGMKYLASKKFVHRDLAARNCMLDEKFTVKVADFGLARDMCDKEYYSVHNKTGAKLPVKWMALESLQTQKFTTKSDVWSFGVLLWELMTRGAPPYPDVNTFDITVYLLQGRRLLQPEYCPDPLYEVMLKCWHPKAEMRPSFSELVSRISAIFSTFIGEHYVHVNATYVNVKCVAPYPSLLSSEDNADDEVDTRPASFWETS
Sequence of MET (Y1248H) Mutant (P08581 25-1408 isoform P08581-2 Y1248H limits assumed): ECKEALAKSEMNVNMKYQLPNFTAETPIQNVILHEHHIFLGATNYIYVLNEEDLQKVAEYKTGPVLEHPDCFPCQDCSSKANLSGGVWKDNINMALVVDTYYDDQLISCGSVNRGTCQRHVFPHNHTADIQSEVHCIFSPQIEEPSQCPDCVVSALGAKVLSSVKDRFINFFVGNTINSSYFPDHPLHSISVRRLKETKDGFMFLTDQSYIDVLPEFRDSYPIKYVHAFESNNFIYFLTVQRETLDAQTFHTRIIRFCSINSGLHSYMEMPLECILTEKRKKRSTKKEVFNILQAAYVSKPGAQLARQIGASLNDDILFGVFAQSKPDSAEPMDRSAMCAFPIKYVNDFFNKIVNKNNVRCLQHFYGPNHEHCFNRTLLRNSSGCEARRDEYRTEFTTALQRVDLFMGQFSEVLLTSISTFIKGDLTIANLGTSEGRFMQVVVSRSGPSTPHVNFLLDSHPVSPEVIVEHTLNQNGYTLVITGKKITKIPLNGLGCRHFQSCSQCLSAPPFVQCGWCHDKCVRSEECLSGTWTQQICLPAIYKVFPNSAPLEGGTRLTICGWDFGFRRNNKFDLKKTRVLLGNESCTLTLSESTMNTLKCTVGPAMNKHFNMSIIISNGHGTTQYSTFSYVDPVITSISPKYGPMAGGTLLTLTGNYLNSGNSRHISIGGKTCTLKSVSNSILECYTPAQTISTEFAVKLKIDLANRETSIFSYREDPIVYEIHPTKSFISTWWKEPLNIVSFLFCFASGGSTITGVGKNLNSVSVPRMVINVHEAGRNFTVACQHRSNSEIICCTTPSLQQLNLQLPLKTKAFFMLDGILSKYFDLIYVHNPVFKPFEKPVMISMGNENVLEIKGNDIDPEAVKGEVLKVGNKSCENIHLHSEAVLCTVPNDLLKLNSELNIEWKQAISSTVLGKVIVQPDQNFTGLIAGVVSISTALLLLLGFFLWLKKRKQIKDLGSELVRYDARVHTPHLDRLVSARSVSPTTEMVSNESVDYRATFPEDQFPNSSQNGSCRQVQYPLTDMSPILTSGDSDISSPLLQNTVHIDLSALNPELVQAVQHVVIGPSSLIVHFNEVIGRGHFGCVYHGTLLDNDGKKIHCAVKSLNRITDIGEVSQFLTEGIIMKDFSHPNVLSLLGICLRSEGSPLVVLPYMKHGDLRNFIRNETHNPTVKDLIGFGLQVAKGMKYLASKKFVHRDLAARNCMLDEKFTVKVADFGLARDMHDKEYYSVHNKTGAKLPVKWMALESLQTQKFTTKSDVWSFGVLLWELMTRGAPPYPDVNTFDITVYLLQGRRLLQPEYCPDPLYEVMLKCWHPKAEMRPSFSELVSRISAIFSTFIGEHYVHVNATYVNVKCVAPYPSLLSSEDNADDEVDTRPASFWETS
T2 sequence (P08581 25-1390): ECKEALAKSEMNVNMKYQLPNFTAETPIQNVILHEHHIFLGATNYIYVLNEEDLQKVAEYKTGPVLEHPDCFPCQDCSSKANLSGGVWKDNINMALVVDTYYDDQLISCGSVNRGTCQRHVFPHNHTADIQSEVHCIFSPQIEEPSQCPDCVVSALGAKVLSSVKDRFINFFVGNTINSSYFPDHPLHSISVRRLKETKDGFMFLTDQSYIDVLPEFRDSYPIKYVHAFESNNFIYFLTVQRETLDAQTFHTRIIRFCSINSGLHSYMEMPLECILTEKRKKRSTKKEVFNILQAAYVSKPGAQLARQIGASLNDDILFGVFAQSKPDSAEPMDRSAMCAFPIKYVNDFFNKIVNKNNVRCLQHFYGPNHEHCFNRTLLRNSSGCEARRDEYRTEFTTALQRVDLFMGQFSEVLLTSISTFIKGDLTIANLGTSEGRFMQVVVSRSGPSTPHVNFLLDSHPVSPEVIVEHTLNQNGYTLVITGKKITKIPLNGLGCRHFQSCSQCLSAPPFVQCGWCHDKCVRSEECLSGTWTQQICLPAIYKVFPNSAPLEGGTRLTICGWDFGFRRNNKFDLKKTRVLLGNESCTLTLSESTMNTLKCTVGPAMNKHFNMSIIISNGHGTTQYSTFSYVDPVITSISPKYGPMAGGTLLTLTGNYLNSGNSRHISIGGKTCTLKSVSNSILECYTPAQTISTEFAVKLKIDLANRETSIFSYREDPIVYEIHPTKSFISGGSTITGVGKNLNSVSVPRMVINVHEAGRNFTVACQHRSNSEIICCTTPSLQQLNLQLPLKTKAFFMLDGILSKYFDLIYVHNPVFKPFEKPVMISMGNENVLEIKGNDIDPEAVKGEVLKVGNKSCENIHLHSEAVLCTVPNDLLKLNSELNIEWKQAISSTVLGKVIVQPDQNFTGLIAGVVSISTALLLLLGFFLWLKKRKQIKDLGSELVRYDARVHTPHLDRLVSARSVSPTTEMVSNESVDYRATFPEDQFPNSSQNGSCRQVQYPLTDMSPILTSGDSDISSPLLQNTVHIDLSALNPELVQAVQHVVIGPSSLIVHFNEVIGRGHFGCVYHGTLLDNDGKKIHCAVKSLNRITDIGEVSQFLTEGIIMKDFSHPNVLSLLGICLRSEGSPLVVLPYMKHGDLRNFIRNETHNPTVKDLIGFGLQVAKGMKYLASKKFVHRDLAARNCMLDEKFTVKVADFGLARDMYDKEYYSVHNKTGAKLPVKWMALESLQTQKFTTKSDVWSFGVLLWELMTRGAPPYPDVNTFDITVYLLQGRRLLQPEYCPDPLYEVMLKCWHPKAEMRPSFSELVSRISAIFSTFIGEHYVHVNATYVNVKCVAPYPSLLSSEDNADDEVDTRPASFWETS
T1 sequence (P08581 with tags, fused parts or gaps): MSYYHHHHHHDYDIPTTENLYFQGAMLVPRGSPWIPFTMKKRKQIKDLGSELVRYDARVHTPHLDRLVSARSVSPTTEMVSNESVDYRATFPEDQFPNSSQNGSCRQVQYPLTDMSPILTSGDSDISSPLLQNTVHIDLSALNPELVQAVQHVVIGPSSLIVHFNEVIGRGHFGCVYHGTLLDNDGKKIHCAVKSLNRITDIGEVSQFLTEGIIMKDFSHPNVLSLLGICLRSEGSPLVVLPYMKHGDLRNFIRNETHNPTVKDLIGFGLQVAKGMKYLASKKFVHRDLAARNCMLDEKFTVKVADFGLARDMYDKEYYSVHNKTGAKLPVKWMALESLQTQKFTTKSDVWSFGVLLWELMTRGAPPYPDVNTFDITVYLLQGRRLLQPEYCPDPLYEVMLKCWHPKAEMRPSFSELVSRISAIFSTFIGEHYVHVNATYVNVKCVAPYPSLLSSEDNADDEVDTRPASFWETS

SMILES	Fold potency decrease versus Example 1, cMET WT [1] [×]	Fold potency decrease versus Example 2, cMET WT [1] [×]	Fold potency decrease versus Example 1, EBC-1 p-MET ([2]; relative to Example 1 = 1) [×]	Fold potency decrease versus Example 2, EBC-1 p-MET ([2]; relative to Example 2 = 1) [×]	Fold potency decrease versus Example 1, MET (D1246N) Mutant [3] [×]	Fold potency decrease versus Example 2, MET (D1246N) Mutant [3] [×]	Fold potency decrease versus Example 1, MET (Y1248H) Mutant [4] [×]	Fold potency decrease versus Example 2, MET (Y1248H) Mutant [4] [×]	Fold potency decrease versus Example 1, MKN-45 p-MET ([5]; relative to Example 1 = 1) [×]	Fold potency decrease versus Example 2, MKN-45 p-MET ([5]; relative to Example 2 = 1) [×]	Fold potency decrease versus Example 1, MET (D1246H) Mutant [6] [×]	Fold potency decrease versus Example 2, MET (D1246H) Mutant [6] [×]	Fold potency decrease versus Example 1, A549 MIG ([7]; relative to Example 1 = 1) [×]	Fold potency decrease versus Example 2, A549 MIG ([7]; relative to Example 2 = 1) [×]	Fold less potent than Example 1 in the various oncogenic Mutant MET kinase biochemical assays [8]	Fold less potent than Example 2 in the various oncogenic Mutant MET kinase biochemical assays [8]	Fold potency decrease versus Example 1, MET (Y1248C) Mutant [9] [×]	Fold potency decrease versus Example 2, MET (Y1248C) Mutant [9] [×]	also measured
CCOc1ccn(-c2ccc(F)cc2)c(=O)c1C(=O)Nc1ccc(Oc2ccnc(N)c2Cl)c(F)c1 [The ′229 Compound]	3.9	4.4	22.5	41.5	2	2.5	2.3	15.7	73.8	73.7	8.5	5.1	2.4	6.3	2.3-8.5 ×	2.5-15.7 ×	3.8	3.6	Fold potency decrease versus Example 1, cMET WT ([1]; listed as the '229 Compound): 3.9 ×; Fold potency decrease versus Example 2, cMET WT ([1]; listed as the '229 Compound): 4.4 ×; Fold potency decrease versus Example 1, EBC-1 p-MET [2, 10]: 22.5 ×; Fold potency decrease versus Example 2, EBC-1 p-MET [2, 11]: 41.5 ×; Fold potency decrease versus Example 1, MKN-45 p-MET [5, 10]: 73.8 ×; Fold potency decrease versus Example 2, MKN-45 p-MET [5, 11]: 73.7 ×; Fold potency decrease versus Example 1, A549 MIG [7, 10]: 2.4 ×; Fold potency decrease versus Example 2, A549 MIG [7, 11]: 6.3 ×
CCOc1ccn(-c2ccc(F)cc2)c(=O)c1C(=O)Nc1cc(F)c(Oc2ccnc(NC(C)=O)c2)cc1F [Example 1, N-(4-((2-acetamidopyridin-4-yl)oxy)-2,5-difluorophenyl)-4-ethoxy-1-(4-fluorophenyl)-2-oxo-1,2-dihydropyridine-3-carboxamide]	1	–	1	–	1	–	1	–	1	–	1	–	1	–	–	–	1	–	–
CCOc1ccn(-c2ccc(F)cc2)c(=O)c1C(=O)Nc1cc(F)c(Oc2ccnc(NC(=O)CC)c2)cc1F [Example 2, N-(2,5-difluoro-4-((2-propionamidopyridin-4-yl)oxy)phenyl)-4-ethoxy-1-(4-fluorophenyl)-2-oxo-1,2-dihydropyridine-3-carboxamide]	–	1	–	1	–	1	–	1	–	1	–	1	–	1	–	–	–	1	–
CCOc1ccn(-c2ccc(F)cc2)c(=O)c1C(=O)Nc1cc(F)c(Oc2ccnc(N)c2)cc1F [Compound A, N-(4-((2-aminopyridin-4-yl)oxy)-2,5-difluorophenyl)-4-ethoxy-1-(4-fluorophenyl)-2-oxo-1,2-dihydropyridine-3-carboxamide]	2.4	2.7	11.7	21.5	4.4	5.7	2.6	18.3	18.8	18.8	6.7	4	3.4	8.9	2.6-6.7 ×	4-18.3 ×	6	5.7	–
